Laboratory results as given in patent publication US9988371B2, “Benzimidazole analogues and related methods” (The Arizona Board of Regents, on Behalf of the University …, priority 2014, dated 2018).

What was measured:
[1] = test system: parental NIH3T3 fibroblasts; assay: Growth of parental NIH3T3 fibroblasts; type: cell-based; details: up to 1000 nM, 3 days
[2] = test system: intracellular signaling (SHC, MAPK, p70S6K and S6RP); assay: In vivo target inhibition, RET phosphorylation and signaling in HRAS/G12V-induced tumors; design: species or system nude mice; details: 48 hr, 1.0 or 3.0 mg/kg daily
Description: FIG. 9: Photographs of blots showing effects of Pz-1 on cellular phosphorylation events in tumors induced in nude mice (from FIG. 8) by injection of NIH3T3 fibroblasts transformed by RET/C634Y or HRAS/G12V. […] Some of the vehicle-treated tumors, at the end of the tumor growth experiment described in FIG. 8, were treated for 48 hr with different doses of Pz-1 (TR) or left untreated (NT). At the end of the treatment, 50 μg of tumor protein lysates were subjected to immunoblotting with anti-phospho-Y1062 (αp1062) and anti-phospho-905 (αpY905) RET antibodies, anti-phospho-MAPK (αpMAPK, T302/Y304), anti-phospho-SHC (αpSHC, Y317), anti-phospho-p70S6K (αpp70S6K, T389), anti-phospho-S6RP (αpS6RP, S235/S236), and anti-phospho-VEGFR2 (αpVEGFR2 pY1175) antibodies. The blots were normalized using anti-RET (αRET), anti-SHC (αSHC), anti-MAPK (αMAPK), anti-p70S6K (αp70S6K), anti-S6RP (αS6RP) or anti-VEGFR2 (αVEGFR2) antibodies.
Some of the vehicle-treated tumors, at the end of the tumor growth experiment reported in FIG. 8, were treated for 48 hr with different doses of Pz-1 (1.0 or 3.0 mg/kg daily) or left untreated. […]

[3] = test system: parental Ba/F3 cells; assay: Proliferation of parental Ba/F3 cells; type: cell-based, murine; details: parental Ba/F3, with IL-3
Description: FIG. 6: Activity of Pz-1 on NCOA4-RET oncogene-driven IL-3-independent proliferation of murine Ba/F3 cells. […] Ba/F3 and Ba/F3 NCOA4-RET cells were incubated with vehicle (NT) or the indicated concentration of Pz-1 in complete medium and counted at different time points. Data are the mean±SD of one experiment performed in triplicate. Murine interleukin-3 (IL-3) dependent pro-B Ba/F3 cells were from ATCC. Ba/F3 cells stably expressing NCOA4-RET (RET/PTC3) protein were generated by transfecting long isoform (RET-51) of NCOA4-RET by electroporation. Parental and Ba/F3-NCOA4-RET cells were cultured in RPMI 1640 with 10% FBS; parental cells required also 10 ng/ml IL-3. IC50 doses (with Confidence Intervals) are indicated.
Nthy-ory-3-1 and TTcells were seeded in 60-mm dishes. Cells were kept in 2% (Nthy-ori-3-1) or 10% (TT) fetal calf serum. One day after plating, different concentrations of Pz-1 or vehicle were added to the medium and changed every 2-3 days. Cells were counted every 2-3 days. […] Parental and RET/PTC-expressing Ba/F3 were kept in 10% fetal calf serum in 6-multi wells and counted every day for 4 consecutive days, changing media every 2 days. […] IC50 doses were calculated through a curve fitting analysis from the last day of growth curves using the PRISM software program (Graphpad Software Inc). […]

In the case of `Cn1cc(-c2ccc3c(c2)ncn3-c2ccc(CC(=O)Nc3cc(C(C)(C)C)on3)cc2)cn1` [Pz-1, N-(5-(tert-butyl)isoxazol-3-yl)-2-(4-(5-(1-methyl-1H-pyrazol-4-yl)-1H-benzo[d]imidazol-1-yl)phenyl)acetamide], the effect on growth [1] is reported as “did not significantly reduce growth”, the “RET phosphorylation and intracellular signaling (SHC, MAPK, p70S6K and S6RP) in tumors” value [2] is reported as “only in RET/C634Y-induced tumors” and the inhibition of proliferation [3] is reported as “inhibition of proliferation by Pz-1 for Ba/F3-NCOA4-RET but not parental Ba/F3”.
